Source: patent US6274146A, “Biologically active phytogenous proteoglycan and a method of making thereof” (priority 1999, dated 2001)

Tested on: 1-st type of simple virus herpes, Kleiman strain
Assay: Herpetic meningoencephalitis model in mice
Type: in vivo, white mice
Settings: for Lethality rate / ML (mean lifespan) / Protective effect (difference between survival rates in experimental and control groups) / Survival rate: introduced 3, 24, 48, 72 and 96 h after infecting
Experimental: Proteoglycan efficiency was estimated by means of herpetic menigeoencephalitis model in mice. The 1-st type of simple virus herpes of Kleiman strained was used. The virus infectuous titer in Vero cells culture was of 6.5-7.01 1 g CPA50^1 /0.1 ml while by intracerebral or intraperitonneal introduction in white mice mass of 7-8 g it was equal to 5.5-6.0 1 g LD50 /0.03 ml. The strain is characterized by increased neurovirulence. The maximum lesion of cells of fibroblasts in hen embryons or of Vero cells (75-100%) was already observed in 18-20 h after infecting. To reproduce herpetic meningoencephalitis in mice the latter were infected with Kleiman virus intraperitonneally in volume of 0.2 ml of both 10 and 100 LD50 doses. The treatment results were estimated as a mean lifespan (ML) and the protective effect which is difference between survival rates in experimental and control groups.
*-proteoglycan was introduced 5 days before infecting
**-proteoglycan was introduced 5 days until infecting and 3 h after the
** Acyclovir was introduced in 3, 24, 48, 72 and 96 h after the infecting.

SMILES: Nc1nc2c(ncn2COCCO)c(=O)[nH]1 [Acyclovir]
- Lethality rate (10 LD50 virus dose): 68%
- ML (mean lifespan) (10 LD50 virus dose): 7.81 ± 1.9 days
- Protective effect (difference between survival rates in experimental and control groups) (10 LD50 virus dose): 15%
- Survival rate (10 LD50 virus dose): 32%
- Effect observed (100 LD50 virus dose): no effect was observed
- Lethality rate (100 LD50 virus dose): 100%
- ML (mean lifespan) (100 LD50 virus dose): 5.3 ± 1.8 days
- Protective effect (difference between survival rates in experimental and control groups) (100 LD50 virus dose): 0%
- Survival rate (100 LD50 virus dose): 0%
